Assays:
Format in all cases: in vivo
[1] = tested on: barnyardgrass (Echinochloa crus-galli); experiment: Test A postemergence; conditions: Echinochloa crus-galli, post-emergence, 240 h, postemergence; for pest or weed control at 125 g/ha: 125 g ai/ha, visual injury vs untreated controls after approx. 10 d, 0 = no effect, 100 = complete control, read-out: Barnyardgrass plant response rating (0 to 100 scale); for pest or weed control at 500 g/ha: 500 g ai/ha, 0 to 100 scale, 0 is no effect, 100 is complete control, read-out: Barnyardgrass plant response rating
Outline: (§1)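 Compounds were formulated in a non-phytotoxic solvent mixture with surfactant and applied as a preemergence directed soil spray after seeding, or sprayed postemergence over plants 2 to 10 cm tall at the one- to two-leaf stage. Evaluation after about 10 d compared treated with untreated controls, using a scale from 0 (no effect) to 100 (complete control).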

[2] = tested on: Galium (catchweed bedstraw, Galium aparine); experiment: Test A postemergence; conditions: Galium, post-emergence, 240 h, postemergence; for pest or weed control at 125 g/ha: 125 g ai/ha, visual injury vs untreated controls after approx. 10 d, 0 = no effect, 100 = complete control, read-out: Galium plant response rating (0 to 100 scale); for pest or weed control at 500 g/ha: 500 g ai/ha, 0 to 100 scale, 0 is no effect, 100 is complete control, read-out: Galium plant response rating
Outline: as §1

[3] = tested on: giant foxtail (Setaria faberii); experiment: Test A postemergence; conditions: Setaria faberi, post-emergence, 240 h, postemergence; for pest or weed control at 125 g/ha: 125 g ai/ha, visual injury vs untreated controls after approx. 10 d, 0 = no effect, 100 = complete control, read-out: Foxtail, Giant plant response rating (0 to 100 scale); for pest or weed control at 500 g/ha: 500 g ai/ha, 0 to 100 scale, 0 is no effect, 100 is complete control, read-out: Foxtail, Giant plant response rating
Outline: as §1

Kochia (Kochia scoparia) = experiment: Test A postemergence; conditions: Bassia scoparia, post-emergence, 240 h, postemergence; for pest or weed control at 125 g/ha: 125 g ai/ha, visual injury vs untreated controls after approx. 10 d, 0 = no effect, 100 = complete control, read-out: Kochia plant response rating (0 to 100 scale); for pest or weed control at 500 g/ha: 500 g ai/ha, 0 to 100 scale, 0 is no effect, 100 is complete control, read-out: Kochia plant response rating
Outline: as §1

[4] = tested on: ragweed (common ragweed, Ambrosia elatior); experiment: Test A postemergence; conditions: Ambrosia artemisiifolia, post-emergence, 240 h, postemergence; for pest or weed control at 125 g/ha: 125 g ai/ha, visual injury vs untreated controls after approx. 10 d, 0 = no effect, 100 = complete control, read-out: Ragweed plant response rating (0 to 100 scale); for pest or weed control at 500 g/ha: 500 g ai/ha, 0 to 100 scale, 0 is no effect, 100 is complete control, read-out: Ragweed plant response rating
Outline: as §1

[5] = tested on: wheat (Triticum aestivum); experiment: Test A postemergence; conditions: Triticum aestivum, post-emergence, 240 h, postemergence; for plant injury at 125 g/ha: 125 g ai/ha, visual injury vs untreated controls after approx. 10 d, 0 = no effect, 100 = complete control, read-out: Wheat plant response rating (0 to 100 scale); for plant injury at 500 g/ha: 500 g ai/ha, 0 to 100 scale, 0 is no effect, 100 is complete control, read-out: Wheat plant response rating
Outline: as §1

[6] = tested on: ryegrass, Italian (Italian ryegrass, Lolium multiflorum); experiment: Test A postemergence; conditions: Lolium multiflorum, post-emergence, 240 h, postemergence; for pest or weed control at 125 g/ha: 125 g ai/ha, visual injury vs untreated controls after approx. 10 d, 0 = no effect, 100 = complete control, read-out: Ryegrass, Italian plant response rating (0 to 100 scale); for pest or weed control at 500 g/ha: 500 g ai/ha, 0 to 100 scale, 0 is no effect, 100 is complete control, read-out: Ryegrass, Italian plant response rating
Outline: as §1

corn (Zea mays) = experiment: Test A postemergence; conditions: Zea mays, post-emergence, 240 h, postemergence; for plant injury at 125 g/ha: 125 g ai/ha, visual injury vs untreated controls after approx. 10 d, 0 = no effect, 100 = complete control, read-out: Corn plant response rating (0 to 100 scale); for plant injury at 500 g/ha: 500 g ai/ha, 0 to 100 scale, 0 is no effect, 100 is complete control, read-out: Corn plant response rating
Outline: as §1

[7] = tested on: blackgrass (Alopecurus myosuroides); experiment: Test A postemergence; conditions: Alopecurus myosuroides, post-emergence, 240 h, postemergence; for pest or weed control at 125 g/ha: 125 g ai/ha, visual injury vs untreated controls after approx. 10 d, 0 = no effect, 100 = complete control, read-out: Blackgrass plant response rating (0 to 100 scale); for pest or weed control at 500 g/ha: 500 g ai/ha, 0 to 100 scale, 0 is no effect, 100 is complete control, read-out: Blackgrass plant response rating
Outline: as §1

[8] = tested on: pigweed (Amaranthus retroflexus); experiment: Test A postemergence; conditions: Amaranthus retroflexus, post-emergence, 240 h, postemergence; for pest or weed control at 125 g/ha: 125 g ai/ha, visual injury vs untreated controls after approx. 10 d, 0 = no effect, 100 = complete control, read-out: Pigweed plant response rating (0 to 100 scale); for pest or weed control at 500 g/ha: 500 g ai/ha, 0 to 100 scale, 0 is no effect, 100 is complete control, read-out: Pigweed plant response rating
Outline: as §1

[9] = tested on: giant foxtail (Setaria faberii); experiment: Test A preemergence; conditions: Setaria faberi, pre-emergence, 240 h, preemergence, 0 to 100 scale where 0 is no effect and 100 is complete control, read-out: Foxtail, Giant plant response rating; for pest or weed control at 125 g/ha: 125 g ai/ha, visual injury rating, approximately 10 d; for pest or weed control at 500 g/ha: 500 g ai/ha
Outline: as §1

[10] = tested on: barnyardgrass (Echinochloa crus-galli); experiment: Test B flooded paddy test; conditions: Echinochloa crus-galli, 250 g ai/ha, Flood; 0 to 100 scale where 0 is no effect and 100 is complete control; read-out: Barnyardgrass plant response rating
Outline: (§2)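 Greenhouse paddy pots with 2-leaf stage plants received compound by direct addition to floodwater 3 cm deep, kept at that level. Scored visually at 13–15 d versus controls (0 no effect; 100 complete control).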

[11] = tested on: ducksalad (Heteranthera limosa); experiment: Test B flooded paddy test; conditions: Heteranthera limosa, 250 g ai/ha, Flood; 0 to 100 scale where 0 is no effect and 100 is complete control; read-out: Ducksalad plant response rating
Outline: as §2

[12] = tested on: sedge, umbrella (small-flower umbrella sedge, Cyperus difformis); experiment: Test B flooded paddy test; conditions: Cyperus difformis, 250 g ai/ha, Flood; 0 to 100 scale where 0 is no effect and 100 is complete control; read-out: Sedge, Umbrella plant response rating
Outline: as §2

rice (Oryra sativa) = experiment: Test B flooded paddy test; conditions: Oryza sativa, 250 g ai/ha, Flood; 0 to 100 scale where 0 is no effect and 100 is complete control; read-out: Rice plant response rating
Outline: as §2

Row | Compound | pest or weed control at 125 g/ha [1] [%] | pest or weed control at 500 g/ha [1] [%] | pest or weed control at 125 g/ha [2] [%] | pest or weed control at 500 g/ha [2] [%] | pest or weed control at 125 g/ha [3] [%] | pest or weed control at 500 g/ha [3] [%] | pest or weed control at 125 g/ha (Kochia (Kochia scoparia)) [%] | pest or weed control at 500 g/ha (Kochia (Kochia scoparia)) [%] | pest or weed control at 125 g/ha [4] [%] | pest or weed control at 500 g/ha [4] [%] | plant injury at 125 g/ha [5] [%] | pest or weed control at 125 g/ha [6] [%] | pest or weed control at 500 g/ha [6] [%] | plant injury at 125 g/ha (corn (Zea mays)) [%] | plant injury at 500 g/ha (corn (Zea mays)) [%] | pest or weed control at 125 g/ha [7] [%] | pest or weed control at 500 g/ha [7] [%] | pest or weed control at 125 g/ha [8] [%] | pest or weed control at 500 g/ha [8] [%] | pest or weed control at 125 g/ha [9] [%] | other results
1 | Cc1cc([C@H]2CN(C)C(=O)[C@@H]2C(=O)Nc2ccccc2F)on1 [Compound 1195] | 0 | 20 | 0 | 0 | 0 | 20 | 0 | 0 | 0 | 0 | 0 | 0 | 0 | 0 | 0 | 0 | 0 | 0 | 0 | 0 | plant injury at 500 g/ha [5]: 0%; pest or weed control at 500 g/ha [9]: 40%; pest or weed control at 250 g/ha [10]: 20%; pest or weed control at 250 g/ha [11]: 0%; pest or weed control at 250 g/ha [12]: 0%; pest or weed control at 250 g/ha (rice (Oryra sativa)): 20%
2 | CSc1ccccc1NC(=O)[C@H]1C(=O)N(C)C[C@@H]1c1ccc(OC(F)F)cc1 [Compound 1212] | 80 | 100 | 50 | 60 | 70 | 90 | 60 | 80 | 0 | 30 | 0 | 0 | 20 | 0 | 20 | 0 | 30 | 50 | 70 | 90 | plant injury at 500 g/ha [5]: 40%; pest or weed control at 500 g/ha [9]: 100%; pest or weed control at 250 g/ha [10]: 0%; pest or weed control at 250 g/ha [11]: 95%; pest or weed control at 250 g/ha [12]: 0%; pest or weed control at 250 g/ha (rice (Oryra sativa)): 0%
3 | Cc1c(F)cccc1NC(=O)[C@H]1C(=O)N(C)C[C@@H]1c1ccc(F)cc1 [Compound 1235] | 90 | 100 | 50 | 70 | 80 | 90 | 30 | 50 | 0 | 30 | 40 | 0 | 30 | 70 | 100 | 30 | 40 | 0 | 50 | 100 | pest or weed control at 500 g/ha [9]: 100%; pest or weed control at 250 g/ha [10]: 100%; pest or weed control at 250 g/ha [11]: 90%; pest or weed control at 250 g/ha [12]: 75%; pest or weed control at 250 g/ha (rice (Oryra sativa)): 80%
